Test results: ChEMBL document CHEMBL5143671, “Discovery of (R)-(3-fluoropyrrolidin-1-yl)(6-((5-(trifluoromethyl)pyridin-2-yl)oxy)quinolin-2-yl)methanone (ABBV-318) and analogs as small molecule Nav1.7/ Nav1.8 blockers for the treatment of pain” (Bioorg Med Chem, 2022)
In brackets after ≈: the same amount, converted by molar mass.

What was measured:
[1] = target: Sodium channel protein type 2 subunit alpha (Homo sapiens, UniProt Q99250); assay: Inhibition of recombinant human Nav1.2 expressed in HEK293 cells incubated for 3 mins by FRET based membrane potential assay; assay type: cell-based
Sodium channel protein type 2 subunit alpha, sequence (Q99250 whole entry): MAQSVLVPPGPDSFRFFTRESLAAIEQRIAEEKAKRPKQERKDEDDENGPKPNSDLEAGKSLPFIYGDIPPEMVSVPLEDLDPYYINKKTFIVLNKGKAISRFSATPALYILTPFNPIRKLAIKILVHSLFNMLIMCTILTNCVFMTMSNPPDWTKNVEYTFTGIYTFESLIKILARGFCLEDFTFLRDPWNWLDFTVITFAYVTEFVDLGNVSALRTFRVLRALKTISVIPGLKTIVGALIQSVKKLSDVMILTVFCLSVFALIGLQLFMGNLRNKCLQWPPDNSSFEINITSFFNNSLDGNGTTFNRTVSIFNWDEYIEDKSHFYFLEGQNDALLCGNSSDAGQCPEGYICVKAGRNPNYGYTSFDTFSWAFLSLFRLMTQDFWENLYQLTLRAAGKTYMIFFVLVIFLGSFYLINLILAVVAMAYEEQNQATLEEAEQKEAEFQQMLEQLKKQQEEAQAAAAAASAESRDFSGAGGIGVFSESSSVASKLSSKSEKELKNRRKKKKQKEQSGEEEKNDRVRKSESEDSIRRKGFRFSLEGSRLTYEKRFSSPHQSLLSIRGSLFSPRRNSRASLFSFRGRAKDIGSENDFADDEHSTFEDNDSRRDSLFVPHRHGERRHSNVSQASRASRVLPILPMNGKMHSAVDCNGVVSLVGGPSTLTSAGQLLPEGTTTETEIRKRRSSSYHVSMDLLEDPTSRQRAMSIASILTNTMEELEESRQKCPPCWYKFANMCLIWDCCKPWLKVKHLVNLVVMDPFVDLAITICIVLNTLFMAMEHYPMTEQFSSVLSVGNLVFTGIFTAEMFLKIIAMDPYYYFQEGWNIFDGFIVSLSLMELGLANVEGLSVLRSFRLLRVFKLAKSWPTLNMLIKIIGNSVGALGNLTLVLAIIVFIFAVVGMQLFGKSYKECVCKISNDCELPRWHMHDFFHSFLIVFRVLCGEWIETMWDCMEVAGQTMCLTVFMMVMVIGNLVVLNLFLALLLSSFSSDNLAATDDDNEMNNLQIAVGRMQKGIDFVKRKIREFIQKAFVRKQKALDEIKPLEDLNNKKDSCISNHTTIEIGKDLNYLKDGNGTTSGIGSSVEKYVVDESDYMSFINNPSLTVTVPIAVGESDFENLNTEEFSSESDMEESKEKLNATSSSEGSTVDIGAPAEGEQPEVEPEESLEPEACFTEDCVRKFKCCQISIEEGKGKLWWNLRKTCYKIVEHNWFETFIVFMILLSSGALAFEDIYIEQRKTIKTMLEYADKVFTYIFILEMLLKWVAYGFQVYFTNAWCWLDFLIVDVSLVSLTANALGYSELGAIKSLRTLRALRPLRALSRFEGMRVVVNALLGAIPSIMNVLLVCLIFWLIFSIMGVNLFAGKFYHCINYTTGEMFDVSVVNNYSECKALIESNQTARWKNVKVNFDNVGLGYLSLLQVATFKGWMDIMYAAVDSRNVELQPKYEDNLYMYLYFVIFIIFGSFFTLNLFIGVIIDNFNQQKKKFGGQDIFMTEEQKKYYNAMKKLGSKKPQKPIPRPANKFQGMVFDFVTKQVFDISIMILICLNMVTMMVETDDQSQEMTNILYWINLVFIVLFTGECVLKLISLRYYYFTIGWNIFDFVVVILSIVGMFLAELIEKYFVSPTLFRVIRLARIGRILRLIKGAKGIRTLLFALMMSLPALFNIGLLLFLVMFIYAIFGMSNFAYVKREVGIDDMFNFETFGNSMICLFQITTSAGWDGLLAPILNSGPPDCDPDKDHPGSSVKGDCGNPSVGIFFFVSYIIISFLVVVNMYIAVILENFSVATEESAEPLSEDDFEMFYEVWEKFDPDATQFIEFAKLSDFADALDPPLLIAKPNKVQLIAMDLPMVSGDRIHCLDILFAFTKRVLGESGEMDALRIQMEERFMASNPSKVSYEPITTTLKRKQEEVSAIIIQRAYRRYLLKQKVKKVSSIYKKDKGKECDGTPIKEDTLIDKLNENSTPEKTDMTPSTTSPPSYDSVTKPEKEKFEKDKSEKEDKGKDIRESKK

[2] = Ratio of free drug concentration in brain to plasma of rat; assay type: ADME, cell-free; conditions: brain and plasma
[3] = Drug concentration in plasma of monoiodoacetate-induced Sprague-Dawley rat model of osteoarthritis at 3 mg/kg, po administered for 5 days and measured after 15 mins; assay type: ADME, organism-based; conditions: time 5 day
[4] = Drug concentration in plasma of monoiodoacetate-induced Sprague-Dawley rat model of osteoarthritis at 10 mg/kg, po administered for 5 days and measured after 15 mins; assay type: ADME, organism-based; conditions: time 5 day
[5] = Drug concentration in plasma of monoiodoacetate-induced Sprague-Dawley rat model of osteoarthritis at 30 mg/kg, po administered for 5 days and measured after 15 mins; assay type: ADME, organism-based; conditions: time 5 day
[6] = Cardiotoxicity in conscious dog CV model assessed as effect on mean arterial pressure upto […] microg/ml […]; assay type: toxicity, Canis lupus familiaris; conditions: dose < 5.5 µg/ml
[7] = Cardiotoxicity in conscious dog CV model assessed as effect on heart rate upto […] microg/ml by ECG analysis; assay type: toxicity, Canis lupus familiaris; conditions: dose < 5.5 µg/ml
[8] = Cardiotoxicity in conscious dog CV model assessed as effect on QT interval upto 5.5 microg/ml by ECG analysis; assay type: toxicity, Canis lupus familiaris; conditions: dose < 5.5 µg/ml
[9] = rat, in vivo, po
in vivo [10] = conditions: Sprague-Dawley, rat, po
in vivo [11] = conditions: Sprague-Dawley, rat, po; remark: listed apart in the source
physchem [12] = conditions: octanol/water
physchem [13] = conditions: phosphate buffer
in vitro [14] = conditions: PAMPA
Rattus norvegicus [15] = species on record: Rattus norvegicus; assay: animal or person; conditions: Sprague-Dawley
Rattus norvegicus [16] = species on record: Rattus norvegicus; assay: animal or person; conditions: Sprague-Dawley; remark: listed apart in the source
[17] = Drug concentration in brain of monoiodoacetate-induced Sprague-Dawley rat model of osteoarthritis at 3 mg/kg, po administered for 5 days and measured after 15 mins; assay type: ADME, organism-based; conditions: time 5 day, read-out: Ct
[18] = Drug concentration in brain of monoiodoacetate-induced Sprague-Dawley rat model of osteoarthritis at 10 mg/kg, po administered for 5 days and measured after 15 mins; assay type: ADME, organism-based; conditions: time 5 day, read-out: Ct
[19] = Drug concentration in brain of monoiodoacetate-induced Sprague-Dawley rat model of osteoarthritis at 30 mg/kg, po administered for 5 days and measured after 15 mins; assay type: ADME, organism-based; conditions: time 5 day, read-out: Ct
[20] = Toxicity in rat assessed as phospholipidosis measured after 5 days; conditions: 120 h, time 5 day
[21] = Toxicity in rat assessed as phospholipidosis measured after 10 days; conditions: 240 h, time 10 day
[22] = target: Voltage-gated inwardly rectifying potassium channel KCNH2 (Homo sapiens, UniProt Q12809);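 note: hERG channel blockade measured by electrophysiology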
Voltage-gated inwardly rectifying potassium channel KCNH2, sequence (Q12809 whole entry): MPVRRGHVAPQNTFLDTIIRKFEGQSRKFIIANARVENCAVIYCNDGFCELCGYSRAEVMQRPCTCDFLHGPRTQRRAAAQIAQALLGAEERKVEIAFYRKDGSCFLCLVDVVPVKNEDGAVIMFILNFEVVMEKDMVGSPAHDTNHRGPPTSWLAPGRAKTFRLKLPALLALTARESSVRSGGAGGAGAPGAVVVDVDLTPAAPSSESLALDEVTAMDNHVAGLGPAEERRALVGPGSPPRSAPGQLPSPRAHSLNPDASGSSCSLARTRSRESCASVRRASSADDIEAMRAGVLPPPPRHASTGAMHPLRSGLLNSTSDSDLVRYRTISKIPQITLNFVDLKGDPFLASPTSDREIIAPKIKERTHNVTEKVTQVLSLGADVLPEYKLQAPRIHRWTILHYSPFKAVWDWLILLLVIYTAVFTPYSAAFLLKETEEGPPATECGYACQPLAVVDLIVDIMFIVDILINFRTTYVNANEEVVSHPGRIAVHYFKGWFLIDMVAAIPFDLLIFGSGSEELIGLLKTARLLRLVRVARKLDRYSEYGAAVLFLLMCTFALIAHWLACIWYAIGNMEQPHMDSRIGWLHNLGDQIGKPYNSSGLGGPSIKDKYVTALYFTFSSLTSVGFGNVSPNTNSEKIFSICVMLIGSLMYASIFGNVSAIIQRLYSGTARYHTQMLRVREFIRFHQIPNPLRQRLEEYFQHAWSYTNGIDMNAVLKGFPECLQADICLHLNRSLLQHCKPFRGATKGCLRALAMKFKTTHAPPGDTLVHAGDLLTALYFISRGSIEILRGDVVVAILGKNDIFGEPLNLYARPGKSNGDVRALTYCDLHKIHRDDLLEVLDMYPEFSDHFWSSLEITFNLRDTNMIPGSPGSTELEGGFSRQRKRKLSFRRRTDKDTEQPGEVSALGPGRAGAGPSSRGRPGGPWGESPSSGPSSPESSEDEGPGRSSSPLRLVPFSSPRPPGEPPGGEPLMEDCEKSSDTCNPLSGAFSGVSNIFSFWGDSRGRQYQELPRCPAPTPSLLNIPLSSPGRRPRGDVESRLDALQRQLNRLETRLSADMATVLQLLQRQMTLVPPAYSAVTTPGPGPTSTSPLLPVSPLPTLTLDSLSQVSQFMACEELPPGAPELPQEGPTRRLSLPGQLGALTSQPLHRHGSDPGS

Rattus norvegicus [23] = species on record: Rattus norvegicus; assay: animal or person; conditions: Sprague-Dawley; remark: listed apart in the source
[24] = target: Sodium channel protein type 10 subunit alpha (Homo sapiens, UniProt Q9Y5Y9); assay: Inhibition of human Nav1.8 by FRET based membrane potential assay
Rattus norvegicus [25] = assay: Antiallodynic activity in Sprague-Dawley rat model of L5/L6 spinal nerve ligation-induced neuropathic pain assessed as maximal possible effect at 3 mg/kg, ip; assay type: functional
Rattus norvegicus [26] = assay: Antiallodynic activity in Sprague-Dawley rat model of L5/L6 spinal nerve ligation-induced neuropathic pain assessed as maximal possible effect at 10 mg/kg, ip; assay type: functional
Rattus norvegicus [27] = assay: Antiallodynic activity in Sprague-Dawley rat model of L5/L6 spinal nerve ligation-induced neuropathic pain assessed as maximal possible effect at 30 mg/kg, ip; assay type: functional
[28] = Drug concentration in plasma of Sprague-Dawley rat model of L5/L6 spinal nerve ligation-induced neuropathic pain at 3 mg/kg, ip by LC/MS analysis; assay type: ADME, organism-based; conditions: in vivo
[29] = Drug concentration in plasma of Sprague-Dawley rat model of L5/L6 spinal nerve ligation-induced neuropathic pain at 10 mg/kg, ip by LC/MS analysis; assay type: ADME, organism-based; conditions: in vivo
[30] = Drug concentration in plasma of Sprague-Dawley rat model of L5/L6 spinal nerve ligation-induced neuropathic pain at 30 mg/kg, ip by LC/MS analysis; assay type: ADME, organism-based; conditions: in vivo
[31] = target: Sodium channel protein type 9 subunit alpha (Homo sapiens, UniProt Q15858)
Sodium channel protein type 9 subunit alpha, sequence (Q15858 whole entry, looked up): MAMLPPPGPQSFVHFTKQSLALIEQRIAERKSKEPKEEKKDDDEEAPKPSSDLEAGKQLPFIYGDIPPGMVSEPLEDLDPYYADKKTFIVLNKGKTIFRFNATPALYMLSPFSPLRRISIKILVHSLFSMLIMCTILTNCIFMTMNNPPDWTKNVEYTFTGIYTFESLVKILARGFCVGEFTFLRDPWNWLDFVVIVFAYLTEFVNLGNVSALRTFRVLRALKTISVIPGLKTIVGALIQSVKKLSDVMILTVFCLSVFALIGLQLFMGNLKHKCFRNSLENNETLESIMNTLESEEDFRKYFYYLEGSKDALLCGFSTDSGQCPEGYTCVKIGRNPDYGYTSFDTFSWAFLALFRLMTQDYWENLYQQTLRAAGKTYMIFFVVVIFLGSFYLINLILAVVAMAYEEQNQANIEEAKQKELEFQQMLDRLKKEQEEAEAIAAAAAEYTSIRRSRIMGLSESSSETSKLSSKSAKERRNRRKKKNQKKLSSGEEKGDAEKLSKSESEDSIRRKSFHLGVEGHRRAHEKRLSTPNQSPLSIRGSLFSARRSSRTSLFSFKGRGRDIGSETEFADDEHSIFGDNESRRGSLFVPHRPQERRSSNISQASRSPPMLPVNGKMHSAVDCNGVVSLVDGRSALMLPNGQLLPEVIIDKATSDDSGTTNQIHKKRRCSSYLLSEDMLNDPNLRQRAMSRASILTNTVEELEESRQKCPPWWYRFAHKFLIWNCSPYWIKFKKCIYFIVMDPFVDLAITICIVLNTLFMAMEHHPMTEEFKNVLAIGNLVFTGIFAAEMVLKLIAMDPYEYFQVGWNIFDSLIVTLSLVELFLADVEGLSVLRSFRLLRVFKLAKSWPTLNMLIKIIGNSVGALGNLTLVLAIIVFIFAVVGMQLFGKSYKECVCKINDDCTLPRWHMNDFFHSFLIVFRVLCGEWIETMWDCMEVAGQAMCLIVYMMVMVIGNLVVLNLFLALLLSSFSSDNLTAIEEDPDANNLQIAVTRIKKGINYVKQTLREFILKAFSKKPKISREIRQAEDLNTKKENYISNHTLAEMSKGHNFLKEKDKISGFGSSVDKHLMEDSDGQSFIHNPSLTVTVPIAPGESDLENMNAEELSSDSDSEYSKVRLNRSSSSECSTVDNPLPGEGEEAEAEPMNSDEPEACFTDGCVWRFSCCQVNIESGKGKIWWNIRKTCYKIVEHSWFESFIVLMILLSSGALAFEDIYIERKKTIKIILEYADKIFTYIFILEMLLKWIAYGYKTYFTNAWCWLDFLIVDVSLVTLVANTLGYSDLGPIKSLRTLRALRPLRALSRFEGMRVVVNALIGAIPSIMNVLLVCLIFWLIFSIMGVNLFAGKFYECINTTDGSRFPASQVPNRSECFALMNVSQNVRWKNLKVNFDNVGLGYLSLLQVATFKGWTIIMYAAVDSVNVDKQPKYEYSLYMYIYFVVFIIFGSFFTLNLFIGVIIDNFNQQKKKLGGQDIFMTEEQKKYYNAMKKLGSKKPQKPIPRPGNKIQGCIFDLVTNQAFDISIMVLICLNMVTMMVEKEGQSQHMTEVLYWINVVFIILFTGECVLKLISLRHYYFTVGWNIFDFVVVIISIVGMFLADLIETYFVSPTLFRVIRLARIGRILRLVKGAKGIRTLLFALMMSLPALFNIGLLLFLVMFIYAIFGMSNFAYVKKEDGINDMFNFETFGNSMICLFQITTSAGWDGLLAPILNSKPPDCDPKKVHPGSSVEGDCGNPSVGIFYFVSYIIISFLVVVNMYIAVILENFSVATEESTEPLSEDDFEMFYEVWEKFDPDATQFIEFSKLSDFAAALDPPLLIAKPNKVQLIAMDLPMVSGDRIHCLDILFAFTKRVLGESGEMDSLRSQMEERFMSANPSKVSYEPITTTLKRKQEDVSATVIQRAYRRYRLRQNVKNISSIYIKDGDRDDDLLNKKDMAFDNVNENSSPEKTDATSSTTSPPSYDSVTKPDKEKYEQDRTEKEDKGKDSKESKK

[32] = target: Sodium channel protein type 5 subunit alpha (Homo sapiens, UniProt Q14524)
[33] = human, microsomes, 0.5 h, 0.5 µM
[34] = rat, microsomes, 0.5 h, 0.5 µM
in vivo [35] = conditions: Sprague-Dawley, rat, iv
in vitro [36] = conditions: dog, MDCK
MDR1 = assay: in vitro; conditions: dog, MDCK-MDR1
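Throughout, for logD: distribution coefficient quantified using high-throughput LC-MS.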
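Throughout, for solubility: determined using a high-throughput solubility method.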

`O=C(c1ccc2cc(Oc3ccc(C(F)(F)F)cn3)ccc2n1)N1CCNCC1` showed an IC50 [1] of 6.6 µM, a Kp uu [2] of 0.08 and a concentration at 120 h [3] of 160 ng/mL. For the same compound, the concentration at 120 h [4] was 510 ng/mL, the concentration at 120 h [5] was 1060 ng/mL and the Activity [6] was “Non-Toxic”. For the same compound, the Activity [7] was “Non-Toxic”, the Activity [8] was “Non-Toxic” and the Vdss [9] was 11.5 L/kg. For the same compound, the half-life (in vivo [10]) was 12.8 h, the bioavailability (in vivo [11]) was 98% and the logD (physchem [12]) was 3.1. It also gave a solubility (physchem [13]) of 200 µM (≈ 80.5 µg/mL), a Papp (in vitro [14]) of 4.7 ×10⁻⁶ cm/s and an EC50 (Rattus norvegicus [15]) of 0.17 µg/mL (≈ 0.422 µM). It also gave an EC50 (Rattus norvegicus [16]) of 0.04 µg/mL (≈ 0.0994 µM).

In the case of `O=C(c1ccc2cc(Oc3ccc(C(F)F)cn3)ccc2n1)N1CCNCC1`, the IC50 [1] is reported as 12.8 µM, the Kp uu [2] is reported as 0.14 and the concentration at 120 h [3] is reported as 1000 ng/mL. It also gave a concentration at 120 h [4] of 4170 ng/mL, a concentration at 120 h [5] of 9110 ng/mL and a concentration at 120 h [17] of 200 ng/mL. For the same compound, the concentration at 120 h [18] was 720 ng/mL, the concentration at 120 h [19] was 1560 ng/mL and the Activity [20] was “Non-Toxic”. The Activity [21] was “Toxic”, the IC50 [22] was 29.5 µM and the Vdss [9] was 5.42 L/kg. The half-life (in vivo [10]) was 3.38 h, the bioavailability (in vivo [11]) was 96% and the logD (physchem [12]) was 2.4. The solubility (physchem [13]) was 150 µM (≈ 57.7 µg/mL), the Papp (in vitro [14]) was 3.3 ×10⁻⁶ cm/s and the EC50 (Rattus norvegicus [23]) was 0.45 µg/mL (≈ 1.17 µM).

Compound `CN1CCN(C(=O)COc2ccc3cc(Oc4ccccn4)ccc3n2)CC1` has an IC50 [24] of 1.83 µM, an IC50 [1] of 20 µM and an MPE (Rattus norvegicus [25]) of 10%. It also gave an MPE (Rattus norvegicus [26]) of 30%, an MPE (Rattus norvegicus [27]) of 59% and a Kp uu [2] of 0.88. For the same compound, the Cp [28] was 110 ng/mL, the Cp [29] was 400 ng/mL and the Cp [30] was 1930 ng/mL. The IC50 [22] was 30 µM, the IC50 [31] was 3.13 µM and the IC50 [32] was 33 µM. The CLH [33] was under 33 mL/min/kg, the CLH [34] was 567 mL/min/kg and the clearance (in vivo [35]) was 54 mL/min/kg. It also gave a half-life (in vivo [10]) of 3.38 h, a bioavailability (in vivo [11]) of 10% and a logD (physchem [12]) of 2.9. The solubility (physchem [13]) was 176 µM (≈ 66.6 µg/mL), the Papp (in vitro [36]) was 33.4 ×10⁻⁶ cm/s and the efflux ratio (MDR1) was 3.7.
